The numbers were not newly measured in article PMC11585628 (Nature Communications, 2024), which cites them from elsewhere.

By EC50 is commonly meant the concentration needed to bring the measured effect to its halfway point.

This data set concerns SARS-CoV-2. The conditions noted are these: read-out: EC50 for antiviral effects.

With XR8-24, the EC50 was 1.2 µM.
